Experimental data published in PubChem BioAssay AID1250 (SRMLSC, 2008).
Active and inactive are the calls of the source.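 The calls were made as follows: active = inhibition of at least 30% at one or more tested concentrations; inactive = inhibition below 30% at every dose.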

Experiment: antiviral protection against BTV-induced cell death – arbovirus, BSR cells, confirmation (AID 1250)
Conditions: BSR cells, Bluetongue virus CPE, ATP luminescence, 72 h; at 5 µM (top of the series)
In the case of `O=C(Nc1cccc(Cl)c1)Nc1ccnc(-c2cccnc2)n1`, the CPE inhibition was 23.9% (inactive).

Same assay, conditions: BSR cells, Bluetongue virus CPE, ATP luminescence, 72 h; at 20 µM (top of the series)
For `O=C(Nc1ccccc1C(=O)O)c1ccc2ccccc2n1`, the CPE inhibition was 16.2% (inactive). For `CC(C)(CO)CNC(=O)CC1C(=O)NCCN1CC(c1ccccc1)c1ccccc1` (stereo not given), the CPE inhibition was 1.48% (inactive). In the case of `CCOc1cccc2sc(NN)nc12`, the CPE inhibition was 14.3% (inactive). For `c1ccc(-c2csc3ncnc(NCCCN4CCOCC4)c23)cc1`, the CPE inhibition was 4.19% (inactive). For `O=C1CC(=O)N(Cc2ccco2)C(=O)N1`, the CPE inhibition was 2.11% (inactive). In the case of `Cc1nc(NS(=O)(=O)c2ccccc2C)c2c3c(sc2n1)CCC3`, the CPE inhibition was 27.6% (inactive). With `O=C(Nc1ccc(OC(F)(F)F)cc1)c1[nH]ncc1[N+](=O)[O-]` the CPE inhibition was 25.3% (inactive). For `O=C(Nc1nc2ccccc2s1)c1ccc(OCC2CCCO2)cc1` (stereo not given), the CPE inhibition was 5.66% (inactive). In the case of `C=CCN(C(=O)c1cccc(N2C(=O)C3CC=CC(C)C3C2=O)c1)c1ccccc1` (stereo not given), the CPE inhibition was 8.5% (inactive). With `N#Cc1ccccc1NC(=O)c1ccccc1OCC(=O)NCc1ccco1` the CPE inhibition was 6.97% (inactive). With `CC1=NN(c2nc(-c3ccc(Cl)cc3)cs2)C(=O)C1` the CPE inhibition was 8.37% (inactive). In the case of `CCCc1c(OCCCCc2nn[nH]n2)ccc(C(C)=O)c1O`, the CPE inhibition was 12.8% (inactive). With `C=CCn1c(SC(C)C(N)=O)nc2sc(CC)cc2c1=O` (stereo not given) the CPE inhibition was 18% (inactive). For `CC(C)c1ccc(C2=C(O)c3ccccc3C(=O)C2=O)cc1`, the CPE inhibition was 14.3% (inactive). In the case of `O=C(NNC(=O)c1cccs1)c1ccc([N+](=O)[O-])cc1`, the CPE inhibition was 4.62% (inactive). For `C/C(=N\Nc1nc2ccccc2[nH]1)c1ccc2c(c1)OCO2`, the CPE inhibition was 8.76% (inactive). In the case of `COC(=O)c1ccccc1NC(=O)CN1CCC(NC(=O)c2ccc(C)cc2)CC1`, the CPE inhibition was 21.3% (inactive). For `COc1cccc(-n2c(C)cc(/C=C3/C(=N)N4C(=NC3=O)SN=C4S(C)(=O)=O)c2C)c1`, the CPE inhibition was 19.6% (inactive). In the case of `Oc1ccccc1CNCCCNCc1ccccc1O`, the CPE inhibition was 20.8% (inactive). With `O=C(Nc1c(-c2ccccc2)nc2ccccn12)c1cccs1` the CPE inhibition was 20.6% (inactive). For `O=C(c1ccc2ccccc2n1)N1CCN(c2ccccc2Cl)CC1`, the CPE inhibition was 8.76% (inactive). For `CCN=c1scc(C)n1/N=C/c1cc(Br)c(O)c(Br)c1`, the CPE inhibition was -2.38% (inactive). With `Clc1cccc(-c2cc3nc4c(c(NCc5ccco5)n3n2)CCCC4)c1` the CPE inhibition was 10.7% (inactive). With `CN(c1ccccc1)c1ccc(/C=C(\CCC(=O)O)c2nc3ccccc3s2)cc1[N+](=O)[O-]` the CPE inhibition was 21.4% (inactive). With `C(=N\Nc1nc(-c2ccccc2)cs1)/c1ccco1` the CPE inhibition was 20.9% (inactive). In the case of `Cc1csc(NC(=O)CN2C(=O)C3CC=CCC3C2=O)n1` (stereo not given), the CPE inhibition was 1.87% (inactive). In the case of `COCCn1c(C)cc(C(=O)CSc2cc(C)c3ccccc3n2)c1C`, the CPE inhibition was 7.16% (inactive). With `COc1cc2c(cc1NC(=O)CC1SC(N3CCCC3)=NC1=O)oc1ccccc12` (stereo not given) the CPE inhibition was 13.7% (inactive). For `Cc1cccc(N2CCN(C(=O)C3COc4ccccc4O3)CC2)c1C` (stereo not given), the CPE inhibition was 19.7% (inactive). For `N=C(N)SCc1nc2ccccc2c(=O)n1-c1ccccc1`, the CPE inhibition was -4.62% (inactive). In the case of `O=C(Nc1scc(-c2ccccc2)c1C(=O)O)c1ccco1`, the CPE inhibition was 10.9% (inactive). For `COc1ccc2c(C)cc(Sc3nnnn3-c3ccccc3)nc2c1`, the CPE inhibition was 20.9% (inactive). With `Cc1nnc(SCC(=O)N2CCc3ccccc32)s1` the CPE inhibition was 3.29% (inactive). For `O=Cc1cn(-c2ccccc2)nc1-c1cc2cc(O)ccc2oc1=O`, the CPE inhibition was 9.88% (inactive). With `Cc1cccc(-n2c3nc(=O)[nH]c(=O)c-3cc3cc([N+](=O)[O-])ccc32)c1` the CPE inhibition was 16.1% (inactive). In the case of `O=C(O)c1ccccc1N/N=C\c1ccnc2ccccc12`, the CPE inhibition was 12.3% (inactive). In the case of `Cc1ccc(C(=O)Nc2ccccc2SCC2CSc3nc4ccccc4c(=O)n32)cc1` (stereo not given), the CPE inhibition was 14.6% (inactive). In the case of `Cc1nc(CNS(=O)(=O)c2cccnc2)cs1`, the CPE inhibition was 4.68% (inactive). With `COc1cc(C(=O)Nc2sc(C)c(C)c2C(=O)O)cc(OC)c1OC` the CPE inhibition was 26% (inactive). With `COc1ccc(F)cc1C(=O)C1CCCN(C(=O)CSc2ccccn2)C1` (stereo not given) the CPE inhibition was 17.6% (inactive). With `C=C(C)CN(CC)C(=O)CSc1nc(O)cc(=O)n1C1CCCC1` the CPE inhibition was -1.91% (inactive). With `Cc1ccc(N2CN=c3s/c(=C\c4ccccn4)c(=O)n3C2)cc1` the CPE inhibition was -1.84% (inactive). For `COc1ccc(C(=O)Nc2sc3c(c2C(=O)O)CC(C)(C)OC3)cc1`, the CPE inhibition was 27.2% (inactive). With `COc1ccc(-c2csc(NC(=O)Cc3cccc4ccccc34)c2C(=O)O)cc1` the CPE inhibition was 24.9% (inactive). For `CN1CCN(C(=S)NC(=O)c2ccc(Cl)cc2)CC1`, the CPE inhibition was 29.2% (inactive). With `CCOc1ccc2nc(NC(=O)C3=NN(c4ccccc4)C(=O)CC3)sc2c1` the CPE inhibition was 25% (inactive). With `CCOc1ccc2nc(NC(=O)C3CCN(S(=O)(=O)c4cnc[nH]4)CC3)sc2c1` the CPE inhibition was 11.9% (inactive). For `CC1CC(C)CN(c2nc(NCc3ccco3)nc(N)c2[N+](=O)[O-])C1` (stereo not given), the CPE inhibition was 25.5% (inactive). With `c1coc(CNc2c3c(nc4ncnn24)CCCC3)c1` the CPE inhibition was 13.4% (inactive). With `CCN(CC)C(=O)CSC1=N/C(=C/c2ccco2)C(=O)N1c1ccc(OC)c(Cl)c1` the CPE inhibition was 13.3% (inactive). For `O=c1[nH]n2c(=O)c3c([nH]c2c1N=Nc1cccc(Cl)c1)CCC3`, the CPE inhibition was 16.8% (inactive). For `O=C(O)CSc1nc(-c2ccc(Cl)cc2)nc2c1oc1ccccc12`, the CPE inhibition was 24.1% (inactive). For `Nc1c(-c2ccccc2)c(CSc2nc3ccccc3[nH]2)nn1-c1cccc(Cl)c1`, the CPE inhibition was 23.8% (inactive). For `Cc1ccccc1CSc1nnc(NC(=O)C2COc3ccccc3O2)s1` (stereo not given), the CPE inhibition was 18.9% (inactive). With `O=C(NCCN1C(=O)S/C(=C/c2cccnc2)C1=O)C1CC(=O)N(Cc2ccccc2)C1` (stereo not given) the CPE inhibition was 3.69% (inactive). In the case of `Cc1ccc(CSCc2nc3ccccc3[nH]2)cc1`, the CPE inhibition was 12.9% (inactive). For `O=c1oc(/C=C/c2ccco2)nc2sc3c(c12)CCC3`, the CPE inhibition was 21.9% (inactive). In the case of `Cc1cc(/C=C2/C(=N)N3C(=NC2=O)SN=C3S(C)(=O)=O)c(C)n1-c1ccc(F)cc1`, the CPE inhibition was 20.6% (inactive). With `Cc1nn2c(-c3ccccc3)c(-c3ccccc3)nc2[nH]c1=O` the CPE inhibition was 9.59% (inactive). For `COCCn1c(SCC(=O)Nc2cc(Cl)ccc2OC)nc2c(c1=O)SC(C)C2` (stereo not given), the CPE inhibition was 17.7% (inactive). With `CCCCn1c(SCC(=O)N2CCN(c3ccccc3)CC2)nc2ccsc2c1=O` the CPE inhibition was 6.77% (inactive). With `CC1CC(C)(C)CC2(C1)NC(=O)N(CC(=O)NCCc1c[nH]c3ccccc13)C2=O` (stereo not given) the CPE inhibition was 23.6% (inactive). With `O=C1c2ccccc2N2C(=O)c3ccccc3[C@H]2N1c1ccccc1` the CPE inhibition was 2.15% (inactive). For `CCCCOc1ccc(C(O)C(CN2CCCCC2)c2ccccc2)cc1` (stereo not given), the CPE inhibition was 12.5% (inactive). For `N=C1/C(=C/c2ccc(-c3cccc(C(=O)O)c3)o2)C(=O)N=C2SC=C(c3ccccc3)N12`, the CPE inhibition was 16.8% (inactive). In the case of `COc1ccc(Br)cc1CN(C)CC(=O)Nc1c(Cl)cccc1Cl`, the CPE inhibition was 28.5% (inactive). For `Cc1ccccc1N=C1NC(=O)/C(=C/c2cccn2-c2cccc(C(=O)O)c2)S1`, the CPE inhibition was 21.3% (inactive). With `Cc1cccc2c1nc(-c1ccccc1)n1nnnc21` the CPE inhibition was -3.74% (inactive). In the case of `CC(C)c1cc(C(F)(F)F)n2nc(C(=O)Nc3ccc4c(c3)OCO4)cc2n1`, the CPE inhibition was 9.64% (inactive). With `O=C1c2[nH]nc(-c3ccccc3O)c2C(c2ccc(F)cc2)N1CC1CCCO1` (stereo not given) the CPE inhibition was 10.9% (inactive). In the case of `OCCNc1nc(Nc2ccccc2)nc2ccccc12`, the CPE inhibition was 15.3% (inactive). For `CCOC(=O)N1CCC(Nc2c(Nc3cccc(CC)c3)c(=O)c2=O)CC1`, the CPE inhibition was 9.52% (inactive). With `COc1ccc(-c2csc(Nc3ccc(S(=O)(=O)Nc4cc(C)on4)cc3)n2)cc1` the CPE inhibition was 14.2% (inactive). With `COc1cc(/C=C/C(=O)c2c(O)n(CCc3ccccc3)c(=O)[nH]c2=O)ccc1O` the CPE inhibition was 13% (inactive). For `O=C(N/N=C/c1c(O)n(CCc2ccccc2)c(=O)[nH]c1=O)c1ccncc1`, the CPE inhibition was 7.83% (inactive). With `Cc1nc(Nc2ccccc2)sc1-c1ccccc1` the CPE inhibition was 3.32% (inactive). In the case of `COc1cc2c(C(=O)O)c(C)n(CC(C)C)c2c2ccccc12`, the CPE inhibition was 28.1% (inactive). In the case of `Cc1ccc(Nc2nc(N)c([N+](=O)[O-])c(N3CCOCC3)n2)cc1C`, the CPE inhibition was 11.3% (inactive). For `COC(=O)c1ccccc1NC(=O)c1ccc(COc2ccc(C)c(C)c2)o1`, the CPE inhibition was 27.6% (inactive). For `CCCN(CCC)C(=O)CSc1nc2c(sc(=S)n2-c2ccc(OCC)cc2)c(=O)[nH]1`, the CPE inhibition was 28.7% (inactive). For `COc1ccccc1C(=O)NCC1CCN(c2ccc(S(=O)(=O)N3CCOCC3)cc2)CC1`, the CPE inhibition was 6.04% (inactive). With `O=C(O)c1ccccc1CSc1ccccn1` the CPE inhibition was 2.46% (inactive). With `COC(=O)c1cc(NC(=S)NCc2ccc(Cl)cc2)cc(C(=O)OC)c1` the CPE inhibition was -1.18% (inactive). For `Cc1ccc(S(=O)(=O)CCSc2cccc(C(=O)Nc3ccccc3C(=O)O)c2)cc1`, the CPE inhibition was 28.2% (inactive). For `N=C1/C(=C/c2cccs2)C(=O)N=C2SN=C(SCc3ccccc3)N12`, the CPE inhibition was 29.3% (inactive). In the case of `Cc1ccc(NC2c3ncccc3C(=O)N2C2CCCCC2)cc1C` (stereo not given), the CPE inhibition was 12.7% (inactive). For `CCCCn1c(SCc2cccc([N+](=O)[O-])c2)nc2ccsc2c1=O`, the CPE inhibition was 3.1% (inactive). For `C#CCNC(=O)C1=C[C@H](c2cn(C(C)=O)c3ccccc23)C[C@H](OCc2ccc(CO)cc2)O1`, the CPE inhibition was -0.3% (inactive). For `CCOC(=O)CSc1nc2c(sc(=S)n2-c2ccc(OCC)cc2)c(=O)[nH]1`, the CPE inhibition was 19.1% (inactive). With `CCOC(=O)c1ccc(NC(=O)CC2S/C(=N/N=C/c3c[nH]c4ccccc34)NC2=O)cc1` (stereo not given) the CPE inhibition was 11.7% (inactive). For `O=C(Nc1nnc(SCc2ccccc2Cl)s1)C1COc2ccccc2O1` (stereo not given), the CPE inhibition was 16.7% (inactive). With `O=C/C(=C\Nc1ccc(Cl)cn1)c1nc2cc(Cl)ccc2o1` the CPE inhibition was 10.2% (inactive). For `CCOC(=O)c1c(-c2ccc(C)c(C)c2)csc1NC(=O)C1CC=CCC1C(=O)O` (stereo not given), the CPE inhibition was 29.6% (inactive). For `CCOc1ccc(S(=O)(=O)N2CCN(c3ccccc3OC)CC2)c2cccnc12`, the CPE inhibition was 17.1% (inactive).
